# Experimental data taken from patent US20210275576A1, “MOLECULAR HYDROGEN-CONTAINING COMPOSITION FOR PREVENTION AND/OR IMPROVEMENT OF GENETIC DISORDER” (MiZ Company Limited, priority 2020, published 2021).
# Tested on: patient diagnosed as having Down syndrome
# Conditions: inhalation 1-3 hours per day for one month, hydrogen concentration 4% to 6%
# From the text: A patient diagnosed as having Down syndrome developed mild cognitive impairment and could not go out because of a depressive symptom. Additionally, their skin had wrinkles due to premature aging characteristic to Down syndrome.
compound,measurement,setting,value
"[HH] [hydrogen, molecular hydrogen]",ability to go out,,could go out
same,motivation to learn,,got motivated to learn
same,skin resilience (premature aging),,became resilient
same,skin wrinkles (premature aging),,became less noticeable
same,depressive symptom,200 ml/min (Jobs-α generator),improved
